Source: US6562756B1, “Herbicidal compositions” (Nissan Chemical Industries, Ltd., priority 1999, dated 2003)

Tests used:
Type in all cases: in vivo
maize = experiment: Test on phytotoxicity to maize sown at a shallow sowing depth (soil treatment, pot test); conditions: for Fresh weight ratio with respect to untreated plants: maize sown at 1 cm depth, 17 days after application; for phytotoxicities to maize sown at a shallow sowing depth caused by Compound (A1), (A2), (A3) or (A4): effect of the safener: summary in words of Table 1
Description: Cylindrical pots having an inner diameter of about 11 cm and a depth of 10 cm were charged with sterilized upland soil. In each pot, three seeds of maize were separately seeded at a sowing depth of 1 cm. On the day of seeding, wettable powder appropriately formulated according to the above Formulation Examples was diluted with water and then applied with a small type sprayer at a spray volume of 10 liter/are. Seventeen days after the application, the fresh weight of aerial parts of each plant was determined and then compared with those of untreated plants.

[1] = system: velvetleaf (Abutilon theophrasti); experiment: Test on herbicidal effects by soil treatment: velvetleaf; conditions: four weeks after application
Description: (§1) Plastic cases having a size of 30 cm (length), 30 cm (width) and 10 cm (depth) were charged with sterilized upland soil. In each plastic case, seeds of velvetleaf (Abutilon theophrasti), common lambsquarters (Chenopodium album), redroot pigweed (Amaranthus viridis) and common ragweed (Ambrosia artemisiaefolia) were seeded, and covered with soil of 0.5 cm thickness. On the day of seeding, wettable powder appropriately formulated according to the above Formulation Examples was diluted with water and then applied with a small type sprayer at a spray volume of 10 liter/are. Four weeks after the application, the fresh weight of aerial parts of each weed was determined and then compared with those of untreated weed.

[2] = system: common lambsquarters (Chenopodium album); experiment: Test on herbicidal effects by soil treatment: common lambsquarters; conditions: four weeks after application
Description: as §1

[3] = system: redroot pigweed (Amaranthus viridis); experiment: Test on herbicidal effects by soil treatment: redroot pigweed; conditions: four weeks after application
Description: as §1

[4] = system: common ragweed (Ambrosia artemisiaefolia); experiment: Test on herbicidal effects by soil treatment: common ragweed; conditions: four weeks after application
Description: as §1

weeds = experiment: Test on herbicidal effects by soil treatment: summary over the weeds; conditions: summary in words of Table 2
Description: as §1

Row | SMILES | Fresh weight ratio with respect to untreated plants (maize; 40 g/ha) [%] | Fresh weight ratio with respect to untreated plants (maize; 80 g/ha) [%] | Fresh weight ratio with respect to untreated weeds, A.th ([1]; 5 g/ha) [%] | Fresh weight ratio with respect to untreated weeds, A.th ([1]; 10 g/ha) [%] | Fresh weight ratio with respect to untreated weeds, C.al ([2]; 5 g/ha) [%] | Fresh weight ratio with respect to untreated weeds, C.al ([2]; 10 g/ha) [%] | Fresh weight ratio with respect to untreated weeds, A.vi ([3]; 5 g/ha) [%] | Fresh weight ratio with respect to untreated weeds, A.vi ([3]; 10 g/ha) [%] | Fresh weight ratio with respect to untreated weeds, A.ar ([4]; 5 g/ha) [%] | Fresh weight ratio with respect to untreated weeds, A.ar ([4]; 10 g/ha) [%] | herbicidal activities in the presence of Compound (B), (C), (D) or (E) (weeds) | phytotoxicities to maize sown at a shallow sowing depth caused by Compound (A1), (A2), (A3) or (A4): effect of the safener (maize)
1 | CCS(=O)(=O)N(C(=O)C(C)(C)C)c1cc(-n2c(=O)cc(C(F)(F)F)n(C)c2=O)c(F)cc1C#N [Compound (A3)] | 84 | 60 | 24 | 1 | 15 | 0 | 6 | 0 | 37 | 11 | not decreased | 
2 | CCS(=O)(=O)N(C(=O)c1ccc(OC)cc1)c1cc(-n2c(=O)cc(C(F)(F)F)n(C)c2=O)c(F)cc1Cl [Compound (A4)] | 73 | 57 | 27 | 5 | 17 | 0 | 9 | 0 | 40 | 14 | not decreased | 
3 | Cn1c(C(F)(F)F)cc(=O)n(-c2cc(NS(C)(=O)=O)c(C#N)cc2F)c1=O [Compound (A2)] | 90 | 76 | 32 | 4 | 18 | 0 | 9 | 0 | 40 | 10 | not decreased | 
4 | CCS(=O)(=O)Nc1cc(-n2c(=O)cc(C(F)(F)F)n(C)c2=O)c(F)cc1Cl [Compound (A1)] | 70 | 55 | 26 | 2 | 13 | 0 | 5 | 0 | 31 | 7 | not decreased | 
5 | CC1(C)OC(c2ccco2)CN1C(=O)C(Cl)Cl (stereo not shown) [Compound (B)] | 100 | 100 | 100 | 100 | 100 | 100 | 100 | 100 | 100 | 100 |  | remarkably reduced
6 | CC1COc2ccccc2N1C(=O)C(Cl)Cl (stereo not shown) [Compound (E)] | 100 | 100 | 100 | 100 | 100 | 100 | 100 | 100 | 100 | 100 |  | remarkably reduced
7 | O=C(C(Cl)Cl)N1CCOC12CCCCC2 [Compound (D)] | 100 | 100 | 100 | 100 | 100 | 100 | 100 | 100 | 100 | 100 |  | remarkably reduced
8 | CC1(C)CN2C(=O)CCC2(C)N(C(=O)C(Cl)Cl)C1 (stereo not shown) [Compound (C)] | 100 | 100 | 100 | 100 | 100 | 100 | 100 | 100 | 100 | 100 |  | remarkably reduced
